Values after ≈ are worked out from the molar mass of the structure shown.
Key:
[1] = Solubility in PBS; format: physicochemical; settings: Solubility (uM)
In short: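 Steps: ultracentrifuge the peptide PBS solution, inject the supernatant on HPLC, inject a 50 μM peptide DMSO solution as reference, then calculate solubility as area ratio (PBS/DMSO) × 50 uM.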

[2] = in vitro; format: cell-based; settings: human, HEK293 cells, CTG (CellTiter Glo) Relative to Media
Protocol: (§1) On Day 3, fluorescence was read with Nano-BRET substrates. Remove plates from incubator to allow to reach to RT (30 min). Also equilibrate CTG reagent to Rm Temp. Dilute Nano-BRET substrate 1:100 in Assay media. Add 25 uL of diluted substrate to each well and shake for 30 seconds. Read on ClarioSTAR or GloMAX right away (within 10 min). Donor emission @ 460 nm. Acceptor emission @ 618 nm. Use the same plate to measure cell viability (Cell Titer-Glo-2.0 (CTG) Viability test). After reading BRET signal, add CTG reagent to each well at 1:2 ratio and shake on orbital shaker for 2 min. Incubate at Rm Temp for 10-30 min. Read luminescence on ClarioSTAR or GloMAX. Analysis was performed using Prism. Non-linear regression. Log (inhibitor) vs response—variable slope (four parameters). For CTG data linear values (not logarithmic).

[3] = system: HEK293 cells; assay: in vitro; format: cell-based; settings: human
Protocol: as §1

[4] = system: TCF/LEF luciferase Reporter in DLD1 cells; assay: TCF reporter assay (DLD1 TCF/LEF luciferase reporter, Bright-Glo); format: cell-based; settings: read-out: DLD1 4% Abs IC50; DLD1 4%
In short: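 Readouts: Bright-Glo luciferase for reporter signal and CellTiter-Glo for cell viability, with absolute IC50 derived. The reporter clone came from lentiviral TCF/LEF-luciferase transduction of DLD1 cells, seeded 5000 cells/well in RPMI with 4% FBS and exposed overnight to serially diluted compounds.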

Solubility [1]: 46 µM (≈ 91.5 µg/mL)
CTG (CellTiter Glo) Relative to Media ([3]; 1.25 µM): 98
CTG (CellTiter Glo) Relative to Media ([3]; 2.5 µM): 98
CTG (CellTiter Glo) Relative to Media ([3]; 5 µM): 95
CTG (CellTiter Glo) Relative to Media ([3]; 10 µM): 92
IC50 [4]: 7.2 µM
Compound: CC(=O)N1CCC[C@]12CC=CCCCC1(CCCC=CCCCOC(=O)N3CC[C@@](C(=O)N[C@@H](Cc4ccsc4)C(=O)N[C@@H](Cc4csc5ccccc45)C(=O)N[C@@H](CCC(N)=O)C(=O)N[C@H](C)C(N)=O)(C3)NC(=O)[C@H](CC(N)=O)NC(=O)[C@H](Cc3ccccc3)NC(=O)[C@H](C)NC(=O)[C@H](C)NC(=O)[C@H](CC(=O)O)NC(=O)[C@H](CC(=O)O)NC1=O)NC(=O)[C@H](CC(C)(C)C)NC(=O)[C@H](CC(=O)O)NC2=O (stereo partly drawn) [I-822, Ac-PL3-Asp-Npg-B5-Asp-Asp-Ala-Ala-Phe-Asn-PyrS2-3Thi-BztA-Gln-dAla-NH2]
viability at 0.625 µM [2]: 100%
viability at 1.25 µM [2]: 94%
viability at 2.5 µM [2]: 99%
viability at 5 µM [2]: 94%
viability at 10 µM [2]: 90%
viability at 20 µM [2]: 82%
